Like-named read-outs stand apart in the source and are kept apart here.
Columns and labels:
[1] = test system: HCV (JFH-1 strain) in Huh7.5 cells; test: Cell-based HCV replicon assay (RT-qPCR of HCV RNA in infected Huh7.5 cells); design: species or system hepatitis C virus; conditions: for EC50: Huh7.5 cells infected with HCV (JFH-1), three days, HCV RNA by quantitative RT-PCR; for SI = CC50/EC50: selectivity index, CC50 (Huh-7.5, XTT) / EC50 (HCV replicon)
Method: The plasmid encoding the full genome of […] (JFH-1) strain (kindly provided by Wakita T) was used for in-vitro transcription to produce approximately high titer stocks of cell culture-produced virus (HCVcc) as previously described ([37]).
Huh7.5 cells were seeded into 48-well plates at a density of 3×10^5 cells per well with DMEM containing 10% FBS. After 24 h, huh7.5 cells were infected with HCV viral stock ([…]) for 3 h, at which point the infection was stopped and each well was washed three times by sterile PBS to removed non-penetrated virions and then the fresh medium was added to each well. Subsequently, the infected cells were treated with newly synthesized compounds at different concentrations and the sofosbuvir (Sigma-Aldrich, USA) as a positive control. After three days inoculation, the supernatant medium was collected and the viral RNA was extracted using viral QIAamp viral RNA mini kit (Qiagen, Düsseldorf, Germany), according to the manufacturer protocol. Then, the amount of HCV replicon RNA was determined using Quantitative RT-PCR assay by hepatitis C virus viral load kit (Gene Proof, Czech Republic, with CE, IVD) according to the manufacturer’s instruction.
The 50% effective concentration (EC50) was determined as the ratio of the normalized HCV RNA amount in treated samples relative to the controls (the samples without compound treatment) using GraphPad Prism5.0 software (GraphPad Software, San Diego, CA).
Target compounds 13-25 were evaluated in a cell-based viral replication surrogate assay known as the replicon system ([39]). We hypothesized that our quinolone analogues will inhibit NS5B, likely via binding to the active site. To test this hypothesis, FDA-approved active site binding NI, sofosbuvir, was used as a control compound. In parallel, compounds were also evaluated for their cytotoxic effects in the same cell line to ensure that the activity is completely devoid of cytotoxicity effects. The biological results are expressed as EC50, CC50 and SI (selectivity index, given by the CC50/EC50 ratio).

XTT cytotoxicity assay = assay type: cell-based; conditions: human, Huh-7.5 cells
Method: The cytotoxicity of compounds to Huh-7.5 cells was measured in parallel with the HCV replication assay based on the cleavage of the yellow tetrazolium salt XTT® (sodium 3-[1 (phenylaminocarbonyl)-3, 4-tetrazolium]-bis(4-methoxy-6-nitro)benzene sulfonic acid) to generate an orange formazan dye by metabolic function of alive and active cells. Cells were treated with various concentrations ([…]) of compounds and incubated for 72 hours.
The cell cytotoxicity was determined using XTT proliferation assay kit (Sigma-Aldrich) following the manufacturer’s instructions. The 50% cytotoxic concentration (CC50) was defined as the concentration of compound that reduced cell proliferation by 50%.

[2] = Hepatitis C virus, Huh7.5, 72 h, read-out: EC50
[3] = Hepatitis C virus, Huh7.5, 72 h

In the case of `O=C(NN=Cc1ccccc1)c1c[nH]c2ccc(OCc3ccccc3)cc2c1=O` [Compound 13, N′-Benzylidene-6-(benzyloxy)-4-oxo-1,4-dihydroquinoline-3-carbohydrazide], the EC50 [1, 2] is reported as > 200 µM, the CC50 at 72 h (XTT cytotoxicity assay) is reported as > 200 µM and the melting point is reported as 130 °C (dec.).
In the case of `CSc1ccc(C=NNC(=O)c2c[nH]c3ccc(OCc4ccccc4)cc3c2=O)cc1` [Compound 14, 6-(Benzyloxy)-N′-(4-(methylthio)benzylidene)-4-oxo-1,4-dihydroquinoline-3-carbohydrazide], the EC50 [1, 3] is reported as > 200 µM, the CC50 at 72 h (XTT cytotoxicity assay) is reported as > 200 µM and the melting point is reported as 160 °C (dec.).
For `O=C(NN=Cc1ccc(F)cc1)c1c[nH]c2ccc(OCc3ccccc3)cc2c1=O` [Compound 15, 6-(Benzyloxy)-N′-(4-fluorobenzylidene)-4-oxo-1,4-dihydroquinoline-3-carbohydrazide], the EC50 [1, 2] was > 200 µM, the CC50 at 72 h (XTT cytotoxicity assay) was > 200 µM and the melting point was 305 °C (dec.).
With `O=C(NN=Cc1ccc(Cl)cc1)c1c[nH]c2ccc(OCc3ccccc3)cc2c1=O` [Compound 16, 6-(Benzyloxy)-N′-(4-chlorobenzylidene)-4-oxo-1,4-dihydroquinoline-3-carbohydrazide] the EC50 [1, 2] was > 200 µM, the CC50 at 72 h (XTT cytotoxicity assay) was > 200 µM and the melting point was 329 °C (dec.).
For `Cc1ccc(C=NNC(=O)c2c[nH]c3ccc(OCc4ccccc4)cc3c2=O)cc1` [Compound 17, 6-(Benzyloxy)-N′-(4-methylbenzylidene)-4-oxo-1,4-dihydroquinoline-3-carbohydrazide], the EC50 [1, 3] was > 200 µM, the CC50 at 72 h (XTT cytotoxicity assay) was > 200 µM and the melting point was 330 °C (dec.).
In the case of `COc1ccc(C=NNC(=O)c2c[nH]c3ccc(OCc4ccccc4)cc3c2=O)cc1` [Compound 18, 6-(Benzyloxy)-N′-(4-methoxybenzylidene)-4-oxo-1,4-dihydroquinoline-3-carbohydrazide], the “SI = CC50/EC50” value [1] is reported as > 2, the CC50 at 72 h (XTT cytotoxicity assay) is reported as > 200 µM and the melting point is reported as 154 °C (dec.).
For `O=C(NN=Cc1cccc(F)c1)c1c[nH]c2ccc(OCc3ccccc3)cc2c1=O` [Compound 19, 6-(Benzyloxy)-N′-(3-fluorobenzylidene)-4-oxo-1,4-dihydroquinoline-3-carbohydrazide], the EC50 [1, 2] was > 200 µM, the CC50 at 72 h (XTT cytotoxicity assay) was > 200 µM and the melting point was 305 °C (dec.).
For `O=C(NN=Cc1ccccc1F)c1c[nH]c2ccc(OCc3ccccc3)cc2c1=O` [Compound 20, 6-(Benzyloxy)-N′-(2-fluorobenzylidene)-4-oxo-1,4-dihydroquinoline-3-carbohydrazide], the EC50 [1, 3] was 70 µM, the EC50 [1] was 120 µM and the “SI = CC50/EC50” value [1] was > 2. The CC50 at 72 h (XTT cytotoxicity assay) was > 200 µM and the melting point was 324 °C (dec.).
With `O=C(NN=Cc1cccc(Cl)c1)c1c[nH]c2ccc(OCc3ccccc3)cc2c1=O` [Compound 21, 6-(Benzyloxy)-N′-(3-chlorobenzylidene)-4-oxo-1,4-dihydroquinoline-3-carbohydrazide] the EC50 [1, 2] was 35 µM, the “SI = CC50/EC50” value [1] was 2.5 and the CC50 at 72 h (XTT cytotoxicity assay) was 90 µM. The melting point was 291 °C (dec.).
In the case of `Cc1cccc(C=NNC(=O)c2c[nH]c3ccc(OCc4ccccc4)cc3c2=O)c1` [Compound 22, 6-(Benzyloxy)-N′-(3-methylbenzylidene)-4-oxo-1,4-dihydroquinoline-3-carbohydrazide], the EC50 [1, 2] is reported as 45 µM, the “SI = CC50/EC50” value [1] is reported as 2.2 and the CC50 at 72 h (XTT cytotoxicity assay) is reported as 100 µM. For the same molecule, the melting point was 310 °C (dec.).
With `Cc1ccccc1C=NNC(=O)c1c[nH]c2ccc(OCc3ccccc3)cc2c1=O` [Compound 23, 6-(Benzyloxy)-N′-(2-methylbenzylidene)-4-oxo-1,4-dihydroquinoline-3-carbohydrazide] the EC50 [1, 2] was 70 µM, the “SI = CC50/EC50” value [1] was 2.2 and the CC50 at 72 h (XTT cytotoxicity assay) was 160 µM. The melting point was 290 °C (dec.).
With `COc1cccc(C=NNC(=O)c2c[nH]c3ccc(OCc4ccccc4)cc3c2=O)c1` [Compound 24, 6-(Benzyloxy)-N′-(3-methoxybenzylidene)-4-oxo-1,4-dihydroquinoline-3-carbohydrazide] the EC50 [1, 2] was 120 µM, the “SI = CC50/EC50” value [1] was >1.8 and the CC50 at 72 h (XTT cytotoxicity assay) was > 200 µM. For the same molecule, the melting point was 280 °C (dec.).
In the case of `COc1ccccc1C=NNC(=O)c1c[nH]c2ccc(OCc3ccccc3)cc2c1=O` [Compound 25, 6-(Benzyloxy)-N′-(2-methoxybenzylidene)-4-oxo-1,4-dihydroquinoline-3-carbohydrazide], the EC50 [1, 2] is reported as > 200 µM, the CC50 at 72 h (XTT cytotoxicity assay) is reported as > 200 µM and the melting point is reported as 299 °C (dec.).
For `CC(C)OC(=O)[C@H](C)N[P@](=O)(OC[C@H]1O[C@@H](n2ccc(=O)[nH]c2=O)[C@](C)(F)[C@@H]1O)Oc1ccccc1` [Sofosbuvir, sofosbuvir, reference compound], the EC50 [1, 2] was 5 µM, the “SI = CC50/EC50” value [1] was > 100 and the CC50 at 72 h (XTT cytotoxicity assay) was > 500 µM.

Reference: publication PMC7059030, “Design, Synthesis, Molecular Modeling Studies and Biological Evaluation of N′-Arylidene-6-(benzyloxy)-4-oxo-1,4-dihydroquinoline-3-carbohydrazide Derivatives as Novel Anti-HCV Agents” (Iranian Journal of Pharmaceutical Research : IJPR, 2019)
